Measurements: patent publication US5399565A, “Pyrazolidinone CCK and gastrin antagonists and pharmaceutical formulations therof” (priority 1993, dated 1995)

Experiments:
brain CCK receptor = target: T1, brain CCK receptor (Mus musculus, UniProt P56481); assay: CCK receptor binding, mouse brain membranes (125I-CCK-8 sulfate); details: for IC50: mouse brain membranes, read-out: Brain IC50; for inhibition at 10 µM: read-out: Brain Percent Inhibition
T1 construct: from tissue; host or cells: forebrain membranes of male CF-1 mice
T1 sequence (P56481 1-453): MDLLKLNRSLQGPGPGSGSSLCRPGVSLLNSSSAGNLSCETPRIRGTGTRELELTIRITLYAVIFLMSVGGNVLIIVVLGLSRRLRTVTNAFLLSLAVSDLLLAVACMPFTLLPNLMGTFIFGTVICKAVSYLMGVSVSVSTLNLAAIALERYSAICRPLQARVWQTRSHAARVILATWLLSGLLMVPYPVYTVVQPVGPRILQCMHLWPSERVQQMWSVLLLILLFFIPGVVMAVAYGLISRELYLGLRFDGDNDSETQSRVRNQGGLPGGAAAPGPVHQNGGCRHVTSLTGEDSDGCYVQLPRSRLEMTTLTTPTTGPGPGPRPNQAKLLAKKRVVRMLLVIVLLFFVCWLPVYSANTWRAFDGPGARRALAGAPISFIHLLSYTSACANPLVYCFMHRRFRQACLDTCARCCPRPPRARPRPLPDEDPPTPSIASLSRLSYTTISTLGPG

[1] = target: T2, peripheral type CCK receptors in rat pancreas (Rattus norvegicus, UniProt P30551); assay: Binding to peripheral type CCK receptors in rat pancreas (3H-L-364,718); details: at 10 μM; read-out: Pancreas Percent Inhibition
T2 construct: Pancreas was obtained from male Sprague-Dawley rats; from tissue; host or cells: pancreas membranes of male Sprague-Dawley rats
T2 sequence (P30551 1-444): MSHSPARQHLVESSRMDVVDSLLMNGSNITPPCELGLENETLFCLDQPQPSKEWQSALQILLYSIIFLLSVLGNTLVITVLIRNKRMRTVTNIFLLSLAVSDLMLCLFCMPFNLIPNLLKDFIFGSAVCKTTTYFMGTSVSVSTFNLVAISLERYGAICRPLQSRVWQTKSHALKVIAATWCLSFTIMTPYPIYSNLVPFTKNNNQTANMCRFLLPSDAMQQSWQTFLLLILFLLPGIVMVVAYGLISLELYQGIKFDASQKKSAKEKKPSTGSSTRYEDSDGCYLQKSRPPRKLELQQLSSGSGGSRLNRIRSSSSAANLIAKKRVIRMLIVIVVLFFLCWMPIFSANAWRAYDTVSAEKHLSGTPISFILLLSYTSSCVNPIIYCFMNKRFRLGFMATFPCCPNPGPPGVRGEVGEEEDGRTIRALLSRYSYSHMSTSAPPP
Outline: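 Washed pancreatic membranes from male Sprague-Dawley rats (150-200 g) incubated 1 h at room temperature with 0.4-0.6 nM ³H-L-364,718 in 50 mM Tris pH 7.4, 5 mM MgCl2, bacitracin, 5 mM DTT. Bound radioactivity counted after filtration; nonspecific binding defined with 100 nM L-364,718; IC50 determined.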

pKa by titration = details: 2:1 dmf:h2o, titration pKa
Catalepsy bar test = format: in vivo, Male Sprague-Dawley rats
Protocol: Acute administration of classical antipsychotic drugs results in catalepsy. Production of catalepsy is thought to be predictive of Parkinson-like extrapyramidal side effects. Sanberg, et al., Neuroscience 102:748-759 (1988). […] Haloperidol, a classical anti-psychotic, was used as a reference.
Male Sprague-Dawley rats (290-350 g) were used in these studies. Catalepsy was evaluated using the bar test (Sanberg et al., Neurosci., 102,748-759, (1988); Ferre, et al., Pharm. Biochem. Beh., 35, 753-757 (1990). The bar apparatus consisted of a horizontal metal rod with a diameter of 1 cm, which was positioned 10 cm from the floor to the top of the bar. The animal was gently placed in front of the bar, and then its forepaws were lifted to rest on the bar. The length of time, in seconds, until both forepaws touched the floor (3 minutes maximum allowed) was recorded. A baseline measurement was taken prior to injection, and catalepsy was evaluated every 60 minutes for three hours after injection of the compounds (Table IV). In a separate set of experiments, the compounds of this invention were administered 60 minutes prior to the administration of haloperidol, and catalepsy was evaluated every 60 minutes for three hours after the haloperidol injection. Catalepsy scores of drug-treated animals were compared to haloperidol- or vehicle-treated animals at each time point using the analysis of variance (ANOVA) (Table V). Haloperidol (Research Biochemicals Inc.) was dissolved in distilled water and a small amount of 0.1N lactic acid. The compounds of this invention were prepared in 50% ethanol. The volume of all injections was 1 ml/kg.

[2] = Block of haloperidol-induced catalepsy, bar test; format: in vivo, Male Sprague-Dawley rats; details: vehicle pretreatment, then Hal
Protocol: Further, compounds of this invention were evaluated for their ability to block haloperidol-induced catalepsy. […] More preferredly, R and R^1 are trans.
Male Sprague-Dawley rats (290-350 g) were used in these studies. […] In a separate set of experiments, the compounds of this invention were administered 60 minutes prior to the administration of haloperidol, and catalepsy was evaluated every 60 minutes for three hours after the haloperidol injection. Catalepsy scores of drug-treated animals were compared to haloperidol- or vehicle-treated animals at each time point using the analysis of variance (ANOVA) (Table V). Haloperidol (Research Biochemicals Inc.) was dissolved in distilled water and a small amount of 0.1N lactic acid. The compounds of this invention were prepared in 50% ethanol. The volume of all injections was 1 ml/kg.

gastrin receptor = target: T3, gastrin receptor (Cavia porcellus, UniProt H0VZC5); assay: Gastrin binding to guinea pig stomach mucosal membranes (125I-gastrin I); details: guinea pig stomach mucosal membranes; read-out: Gastrin IC50
T3 construct: Guinea pig stomach fundus was obtained from male Hartley guinea pigs; from tissue; host or cells: stomach fundus mucosal membranes of male Hartley guinea pigs
T3 sequence (H0VZC5 1-426): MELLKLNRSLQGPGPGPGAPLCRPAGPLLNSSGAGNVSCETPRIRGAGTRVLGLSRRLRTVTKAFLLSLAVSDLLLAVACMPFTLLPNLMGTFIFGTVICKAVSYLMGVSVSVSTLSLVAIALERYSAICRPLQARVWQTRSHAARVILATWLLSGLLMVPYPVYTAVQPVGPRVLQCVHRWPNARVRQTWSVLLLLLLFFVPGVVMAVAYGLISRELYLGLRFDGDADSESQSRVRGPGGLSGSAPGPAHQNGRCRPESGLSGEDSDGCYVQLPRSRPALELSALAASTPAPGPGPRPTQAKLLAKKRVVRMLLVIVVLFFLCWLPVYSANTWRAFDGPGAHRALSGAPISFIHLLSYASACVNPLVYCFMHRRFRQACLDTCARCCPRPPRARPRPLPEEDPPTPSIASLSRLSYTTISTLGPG
Protocol: The method used for gastrin binding to guinea pig stomach mucosal membranes was similar to that described by Takeuchi, Speir and Johnson (Am. J. Physiol. 237(3): E284-E294, 1979). Guinea pig stomach fundus was obtained from male Hartley guinea pigs, 300-350 g, and the mucosa was scraped off with a glass slide. The mucosa was homogenized in 50 mM Tris buffer, pH 7.4, containing 1 mM phenylmethanesulfonyl fluoride using a Dounce glass homogenizer, and the suspension was centrifuged at 40,000 g for 10 min. The resulting pellet was resuspended and centrifuged once more, the final pellet was then suspended in 100 ml assay buffer per 1 guinea pig stomach to give a protein concentration of 200-300 μg/200 μl. The assay buffer consisted of 50 mM Tris buffer, pH 7.4, 5 mM MgCl2, 0.14 mg/ml bacitracin, and 1 μg/ml each of leupeptin, chymostatin, aprotinin and pepstatin. Reagent volumes for the assay were the same as those used for CCK binding to brain membranes. The radioactive ligand was 20 pM ^125 I-gastrin I, from DuPont NEN (NEX-176). The samples were incubated 3 hours at room temperature and filtered and counted as described for CCK binding to brain membranes. Compound samples were prepared and IC-50 values were determined as described for the CCK-brain receptor binding. Non-specific binding was determined using 100 nM gastrin I (human synthetic from Sigma Chemical Co.).

IC50 (brain CCK receptor)	inhibition at 10 µM [1]	pKa (pKa by titration; first or only value)	SMILES	also measured
4400 nM	15%	7.8	O=C1NN(C(=O)Oc2ccc(Cl)cc2)[C@@H](c2ccccc2)[C@@H]1c1ccccc1 (relative stereo) [Example 6, 1-[(4-Chlorophenyl)oxycarbonyl]-4,5-diphenyl-3pyrazolidinone]	–
2600 nM	60%	6.75	O=C1NN(C(=O)c2cc3ccccc3[nH]2)[C@@H](c2ccccc2)[C@@H]1c1ccccc1 (relative stereo) [Example 14, 1-(Indole-2-carbonyl)-4,5-diphenyl-3-pyrazolidinone]	–
–	18%	7.15	O=C1NN(C(=O)c2cccc(C(F)(F)F)c2)[C@@H](c2ccccc2)[C@@H]1c1ccccc1 (relative stereo) [Example 5]	inhibition at 10 µM (brain CCK receptor): 77%
–	–	–	O=C(CCCN1CCC(O)(c2ccc(Cl)cc2)CC1)c1ccc(F)cc1 [Haloperidol]	Catalepsy Score (Catalepsy bar test; 0.25 mg/kg, 60 Min): 2.2 ± 0.3 s; Catalepsy Score (Catalepsy bar test; 0.25 mg/kg, 120 Min, * P < 0.001 vs vehicle): 9.9 ± 2.7 s; Catalepsy Score (Catalepsy bar test; 0.25 mg/kg, 180 Min, * P < 0.001 vs vehicle): 23.1 ± 4.9 s; Catalepsy Score (Catalepsy bar test; 0.25 mg/kg, Pre): 1.8 ± 1.1 s; Catalepsy Score (Catalepsy bar test; 0.5 mg/kg, 60 Min): 3.3 ± 1.7 s; Catalepsy Score (Catalepsy bar test; 0.5 mg/kg, 120 Min, * P < 0.001 vs vehicle): 17.6 ± 2.2 s; Catalepsy Score (Catalepsy bar test; 0.5 mg/kg, 180 Min, * P < 0.001 vs vehicle): 33.5 ± 8.3 s; Catalepsy Score (Catalepsy bar test; 0.5 mg/kg, Pre): 0.9 ± 0.2 s; Catalepsy Score (Catalepsy bar test; 1.0 mg/kg, 60 Min, * P < 0.001 vs vehicle): 10.6 ± 6.3 s; Catalepsy Score (Catalepsy bar test; 1.0 mg/kg, 120 Min, * P < 0.001 vs vehicle): 100.0 ± 46.2 s; Catalepsy Score (Catalepsy bar test; 1.0 mg/kg, 180 Min, * P < 0.001 vs vehicle): 123.9 ± 39.7 s; Catalepsy Score (Catalepsy bar test; 1.0 mg/kg, Pre): 1.2 ± 0.4 s; Catalepsy Score ([2]; 60 Min): 9.72 ± 2.1 s; Catalepsy Score ([2]; 120 Min): 27.42 ± 6 s; Catalepsy Score ([2]; 180 Min): 30.61 ± 6.4 s; Catalepsy Score ([2]; Pre): 3.12 ± 0.61 s
1100 nM	81%	8.4	O=C1NN(C(=O)NCc2ccc(Cl)c(Cl)c2)[C@@H](c2ccccc2)[C@@H]1c1ccccc1 (relative stereo) [Example 7, 1-[(3,4-Dichlorobenzyl)aminocarbonyl]-4,5-diphenyl-3pyrazolidinone]	–
54 nM	34%	7.7	O=C1NN(C(=O)Nc2ccc(OCc3ccccc3)cc2)[C@@H](c2ccccc2)[C@@H]1c1ccccc1 (relative stereo) [Example 3, 1-[(4-Benzyloxyphenyl)aminocarbonyl]-4,5-diphenyl-3-pyrazolidinone]	IC50 (gastrin receptor): 1100 nM
290 nM	14%	4	CN(C)c1ccc(NC(=O)N2NC(=O)[C@@H](c3ccccc3)[C@@H]2c2ccccc2)cc1 (relative stereo) [Example 2, 1-[(4-N,N-Dimethylaminophenyl)aminocarbonyl]-4,5-diphenyl-3-pyrazolidinone]	pKa (pKa by titration; second value): 7.9
3700 nM	33%	6.6	O=C1NN(c2nc3ccc(Cl)cc3s2)[C@@H](c2ccccc2)[C@@H]1c1ccccc1 (relative stereo) [Example 9, 1-[6-Chloro-2-benzothiazolyl]-4,5-diphenyl-3-pyrazolidinone]	–
–	4%	4.5	Nc1ccc(NC(=O)N2NC(=O)[C@@H](c3ccccc3)[C@@H]2c2ccccc2)cc1 (relative stereo) [Example 10, 1-[(4-Aminophenyl)aminocarbonyl]-4,5-diphenyl-3-pyrazolidinone]	inhibition at 10 µM (brain CCK receptor): 57%; pKa (pKa by titration; second value): 8.1
